# Like-named read-outs stand apart in the source and are kept apart here.
# How the values were obtained:
# [1] = tested on: A431 (skin squamous) cancer cell line; test: MTT antiproliferation, A431; type: cell-based, human; details: for IC50: Homo sapiens; for SI (selectivity index) A431: IC50 of RPE1/IC50 of cancer cell line
# Procedure, shortened: (§1)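 Cells seeded 30000/well for 24 h, then treated for 72 h with triplicate wells per dose; 0.5% DMSO as negative control. MTT (2.5 mg ml^-1) added for 4 h at 37 °C, crystals dissolved in 10% SDS overnight. Surviving fraction = O.D. treated / O.D. control.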
# EGFR = target: T1, EGFR (Homo sapiens, UniProt P00533); type: cell-based; details: western blot, MCF7, compound at its MTT IC50; for EGFR RQ (relative quantification): control RQ 3.4461
# T1 construct: Western blot technique was considered for EGFR and VEGFR-2 properties determination; endogenous in cells; host or cells: MCF7 (breast cancer cell line)
# T1 sequence (P00533 25-1210): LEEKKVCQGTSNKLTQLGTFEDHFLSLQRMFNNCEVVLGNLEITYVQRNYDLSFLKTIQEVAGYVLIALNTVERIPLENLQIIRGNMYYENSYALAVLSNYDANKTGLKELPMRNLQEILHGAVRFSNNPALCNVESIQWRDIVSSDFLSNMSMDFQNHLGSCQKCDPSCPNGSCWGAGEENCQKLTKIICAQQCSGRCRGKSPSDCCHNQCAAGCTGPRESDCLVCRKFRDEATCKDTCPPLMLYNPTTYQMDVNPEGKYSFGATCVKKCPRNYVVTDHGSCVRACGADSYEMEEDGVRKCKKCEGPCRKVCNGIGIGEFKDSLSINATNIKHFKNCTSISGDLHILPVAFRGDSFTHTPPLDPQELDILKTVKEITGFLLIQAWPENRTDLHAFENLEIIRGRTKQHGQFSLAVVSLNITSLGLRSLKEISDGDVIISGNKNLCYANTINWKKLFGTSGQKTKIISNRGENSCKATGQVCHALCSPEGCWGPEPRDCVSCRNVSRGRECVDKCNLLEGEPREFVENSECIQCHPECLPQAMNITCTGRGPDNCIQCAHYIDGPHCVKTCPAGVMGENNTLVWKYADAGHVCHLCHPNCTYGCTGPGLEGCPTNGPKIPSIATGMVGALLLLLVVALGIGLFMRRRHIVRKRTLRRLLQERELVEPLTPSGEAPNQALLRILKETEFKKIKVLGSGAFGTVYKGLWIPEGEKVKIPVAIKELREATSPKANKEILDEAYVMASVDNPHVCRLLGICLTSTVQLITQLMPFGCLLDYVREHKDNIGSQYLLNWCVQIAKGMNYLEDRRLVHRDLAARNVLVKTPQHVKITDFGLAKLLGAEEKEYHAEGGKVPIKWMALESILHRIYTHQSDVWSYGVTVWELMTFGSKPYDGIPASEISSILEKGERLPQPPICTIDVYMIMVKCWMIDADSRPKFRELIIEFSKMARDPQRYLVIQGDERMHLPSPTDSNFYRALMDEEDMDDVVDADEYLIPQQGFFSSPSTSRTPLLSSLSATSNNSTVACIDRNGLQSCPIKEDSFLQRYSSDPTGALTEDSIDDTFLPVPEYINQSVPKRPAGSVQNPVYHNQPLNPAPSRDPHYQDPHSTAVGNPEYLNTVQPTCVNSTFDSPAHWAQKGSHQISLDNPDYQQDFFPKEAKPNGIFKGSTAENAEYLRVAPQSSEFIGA
# Procedure, shortened: (§2)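 Western blot of MCF7 breast cancer cells, each agent tested at its own IC50 from the MTT assay on that line, following the manufacturer's instructions.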
# VEGFR-2 = target: T2, VEGFR-2 (Homo sapiens, UniProt P35968); type: cell-based; details: western blot, MCF7, compound at its MTT IC50; for VEGFR-2 RQ (relative quantification): control RQ 3.2634
# T2 construct: Western blot technique was considered for EGFR and VEGFR-2 properties determination; endogenous in cells; host or cells: MCF7 (breast cancer cell line)
# T2 sequence (P35968 20-1356): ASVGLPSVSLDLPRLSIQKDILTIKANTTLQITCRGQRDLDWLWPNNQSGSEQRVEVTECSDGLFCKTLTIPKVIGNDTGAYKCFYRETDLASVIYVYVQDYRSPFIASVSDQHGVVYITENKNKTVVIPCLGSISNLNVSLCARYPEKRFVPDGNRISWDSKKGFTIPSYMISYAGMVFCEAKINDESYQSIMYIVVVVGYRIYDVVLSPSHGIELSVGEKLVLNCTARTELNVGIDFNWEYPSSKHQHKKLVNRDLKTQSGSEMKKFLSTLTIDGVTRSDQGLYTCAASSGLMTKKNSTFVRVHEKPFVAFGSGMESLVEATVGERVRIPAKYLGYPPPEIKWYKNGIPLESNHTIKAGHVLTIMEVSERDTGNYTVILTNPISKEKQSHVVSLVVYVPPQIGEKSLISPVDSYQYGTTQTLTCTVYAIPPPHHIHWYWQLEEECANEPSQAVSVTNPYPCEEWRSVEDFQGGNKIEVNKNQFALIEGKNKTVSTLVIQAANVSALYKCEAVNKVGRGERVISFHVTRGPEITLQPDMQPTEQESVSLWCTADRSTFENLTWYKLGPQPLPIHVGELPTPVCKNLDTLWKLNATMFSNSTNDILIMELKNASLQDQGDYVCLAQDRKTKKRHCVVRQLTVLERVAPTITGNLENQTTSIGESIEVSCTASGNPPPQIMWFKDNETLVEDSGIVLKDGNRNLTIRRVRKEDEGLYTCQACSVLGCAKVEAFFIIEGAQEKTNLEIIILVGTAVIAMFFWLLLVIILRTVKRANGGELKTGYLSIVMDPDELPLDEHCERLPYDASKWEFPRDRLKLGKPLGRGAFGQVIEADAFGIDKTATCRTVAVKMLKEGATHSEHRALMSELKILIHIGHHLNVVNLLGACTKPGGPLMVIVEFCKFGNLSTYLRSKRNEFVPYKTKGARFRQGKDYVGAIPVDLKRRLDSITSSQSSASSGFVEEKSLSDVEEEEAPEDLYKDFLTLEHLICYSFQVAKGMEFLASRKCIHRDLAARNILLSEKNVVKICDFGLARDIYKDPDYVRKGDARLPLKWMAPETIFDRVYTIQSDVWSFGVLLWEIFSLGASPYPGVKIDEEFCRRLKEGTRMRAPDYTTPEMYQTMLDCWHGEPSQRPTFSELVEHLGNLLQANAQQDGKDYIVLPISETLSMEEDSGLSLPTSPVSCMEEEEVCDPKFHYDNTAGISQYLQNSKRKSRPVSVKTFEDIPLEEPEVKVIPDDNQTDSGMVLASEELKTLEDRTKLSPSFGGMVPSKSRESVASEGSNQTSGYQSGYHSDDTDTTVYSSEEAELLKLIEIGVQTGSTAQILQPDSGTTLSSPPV
# Procedure, shortened: as §2
# AChE = AChE (Homo sapiens, UniProt P22303); test: AChE inhibition (DTNB, acetylthiocholine); type: biochemical; details: for IC50: read-out: AChE (IC50, μM) ± SD
# Chain of AChE (P22303 32-614): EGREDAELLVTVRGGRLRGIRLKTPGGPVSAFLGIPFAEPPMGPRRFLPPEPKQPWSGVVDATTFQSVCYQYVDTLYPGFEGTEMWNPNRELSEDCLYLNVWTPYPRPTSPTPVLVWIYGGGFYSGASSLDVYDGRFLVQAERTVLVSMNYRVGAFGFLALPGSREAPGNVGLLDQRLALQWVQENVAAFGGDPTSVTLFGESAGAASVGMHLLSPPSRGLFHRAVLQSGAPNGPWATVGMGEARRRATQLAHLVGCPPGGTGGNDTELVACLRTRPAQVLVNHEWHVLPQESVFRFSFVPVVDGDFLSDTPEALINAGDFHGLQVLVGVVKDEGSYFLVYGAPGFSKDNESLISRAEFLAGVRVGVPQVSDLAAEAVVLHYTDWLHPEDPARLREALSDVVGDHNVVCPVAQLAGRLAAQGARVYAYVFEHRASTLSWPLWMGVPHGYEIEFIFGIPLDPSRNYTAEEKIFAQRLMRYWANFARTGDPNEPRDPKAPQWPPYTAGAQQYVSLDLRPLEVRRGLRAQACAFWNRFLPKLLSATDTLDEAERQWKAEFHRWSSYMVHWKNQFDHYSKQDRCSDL
# Protocol: All compounds were dissolved in MeOH.
# [2] = tested on: HCT116 (colon) cancer cell line; test: MTT antiproliferation, HCT116; type: cell-based, human; details: for IC50: Homo sapiens, HCT-116, 72 h, read-out: IC50 (µM) ± SEM HCT116; for SI (selectivity index) HCT116: IC50 of RPE1/IC50 of cancer cell line
# Procedure, shortened: as §1
# [3] = tested on: MCF7 (breast cancer cell line); test: Annexin V-FITC apoptosis/necrosis studies; type: cell-based, human; details: MCF7, compound at its MTT IC50
# From the text: It is also notable that both the tested compounds increase the apoptosis of the tested cancer cells. Moreover, the total amount of apoptosis for the tested cell line is higher for compound 6m than that for 6l (total number of apoptosis = 38.41, 42.55 for compounds 6l and 6m, respectively). […] On the other hand, necrosis observed for compound 6m is relatively higher than that of compound 6l (necrosis = 3.01, 3.96 for compounds 6l and 6m, respectively). […] These observations agree with the antiproliferation properties observed through MTT assay (Table 3, Fig. 8).
# (§3) Cell cycle studies for the most promising agents synthesized (6l and 6m) against MCF7 (breast) cancer call were conducted by the standard technique. The Cells were suspended in DMEM medium in addition to 1% antibiotic–antimycotic mixture (10000 μg ml^-1 potassium penicillin, 10000 μg ml^-1 streptomycin sulfate and 25 μg ml^-1 amphotericin B), 10% fetal bovine serum and 1% L-glutamine at 37 °C, under 5% CO2 and 95% humidity. Cells were seeded at concentration of 30000 cells per well in fresh complete growth medium in 96-well tissue culture microtiter plates for 24 h. Media was aspirated, fresh complete medium was added and cells were incubated with the IC50 concentration of the tested compounds which determined previously in the MTT antiproliferation testing assay. The ab139418-Propidium Iodide Flow Cytometry kit for cycle analysis (reader: BD FACS Calibur)^8 was used for cell cycle analysis. The Annexin V-FITC Apoptosis Detection Kit (Catalog#K101-25) was utilized for apoptosis studies.^9 All the studies were conducted according to the manufacturer’s instruction.
# [4] = tested on: MCF7 (breast cancer cell line); test: PI-flow cytometry cell cycle studies; type: cell-based, human; details: MCF7, PI-FC, compound at its MTT IC50
# Protocol: Flow cytometry (FC) is a reliable technique for evaluation of cancer cell progression[72]–[74]. Illumination of the cells by lasers can identify the stained propidium iodide (PI) DNA cell content in stoichiometric population value. This is a commonly accessible methodology for studying cancer cell antiproliferation and cell cycle phase suppression.
# as §3
# [5] = tested on: MCF7 (breast) cancer cell line; test: MTT antiproliferation, MCF7; type: cell-based, human; details: for IC50: Homo sapiens, MCF7, 72 h, read-out: IC50 (µM) ± SEM MCF7; for SI (selectivity index) MCF7: IC50 of RPE1/IC50 of cancer cell line
# Procedure, shortened: as §1
# [6] = tested on: RPE1 (normal human immortalized retinal pigment epithelial cell line); test: MTT toxicity towards normal cells, RPE1; type: cell-based; details: RPE-1, read-out: IC50 (µM) ± SEM RPE1
# [7] = tested on: SARS-CoV-2 (hCoV-19/Egypt/NRC-03/2020); test: Vero-E6 cell viral infection model, anti-SARS-CoV-2 IC50 (CPE, crystal violet); type: cell-based; details: for IC50: Severe acute respiratory syndrome coronavirus 2, Vero C1008; for SI = CC50/IC50: Vero-E6, SARS-CoV-2
# [8] = A-431, 72 h, read-out: IC50 (µM) ± SEM A431
# [9] = A-431, read-out: Observed log(IC50, μM) (A431) (converted)
# [10] = Vero-E6, 72 h, reduction of virus-induced CPE, read-out: IC50 (µM) SARS-CoV-2
# [11] = log of observed IC50 in μM, read-out: Observed log(IC50, μM) (SARS-CoV-2) (converted)
Structure (SMILES),"IC50 [1, 8]","IC50 [1, 9]",SI (selectivity index) A431 [1],EGFR % Inhibition (EGFR),EGFR RQ (relative quantification) (EGFR),VEGFR-2 % Inhibition (VEGFR-2),VEGFR-2 RQ (relative quantification) (VEGFR-2),SI = IC50 (AChE)/IC50 (BChE) (AChE),IC50 (AChE),IC50 [2],SI (selectivity index) HCT116 [2],Apoptosis (%) Early [3],Apoptosis (%) Late [3],Apoptosis (%) Total [3],Necrosis [3],% DNA content G0–G1 [4],% DNA content G2/M [4],% DNA content S [4],IC50 [5],SI (selectivity index) MCF7 [5],also measured
"CN1CC(c2ccc(Br)cc2)C2(CN(S(C)(=O)=O)C/C(=C\c3ccc(Br)cc3)C2=O)C12C(=O)Nc1ccccc12 (stereo not shown) [Compound 6m, (E)-5″-(4-Bromobenzylidene)-4′-(4-bromophenyl)-1′-methyl-1″-(methylsulfonyl)dispiro[indoline-3,2′-pyrrolidine-3′,3″-piperidine]-2,4″-dione]",2.43 ± 0.18 µM,2.43 µM,6.1,65.6%,1.1845,61.3%,1.264,1.1,29.7 ± 4.05 µM,3.24 ± 0.27 µM,4.6,24.88%,13.71%,42.55%,3.96%,62.51%,2.38%,35.11%,3.6 ± 0.19 µM,4.1,"efficacy, times more than the standard reference 5-fluorouracil (A431) ([1]; ratio of IC50 values): about 9.6 times; IC50 [6]: 14.9 ± 1.61 µM; IC50 [7, 10]: 8.92 µM; IC50 [7, 11]: 8.92 µM; SI = CC50/IC50 [7]: 17.9"
"CCS(=O)(=O)N1C/C(=C\c2ccc(Cl)cc2)C(=O)C2(C1)C(c1ccc(Cl)cc1)CN(C)C21C(=O)Nc2ccc(Cl)cc21 (stereo not shown) [Compound 6l, (E)-5-Chloro-5″-(4-chlorobenzylidene)-4′-(4-chlorophenyl)-1″-(ethylsulfonyl)-1′-methyldispiro[indoline-3,2′-pyrrolidine-3′,3″-piperidine]-2,4″-dione]",3.69 ± 0.33 µM,3.69 µM,> 13.5,65.7%,1.18,60.2%,1.299,2.0,23.6 ± 7.73 µM,4.11 ± 0.41 µM,> 12.2,14.39%,21.01%,38.41%,3.01%,66.13%,10.13%,23.74%,3.99 ± 0.31 µM,> 12.5,"IC50 [6]: > 50 µM; IC50 [7, 10]: 31.4 µM; IC50 [7, 11]: 31.4 µM; SI = CC50/IC50 [7]: 15.1"

# From publication PMC9380671, “Development of spiro-3-indolin-2-one containing compounds of antiproliferative and anti-SARS-CoV-2 properties” (Scientific Reports, 2022)
